According to ChEMBL document CHEMBL1201862, “PubChem BioAssay data set” (2004):
Where “and” joins values, the source holds several entries; their conditions need not be identical. Equal entries are not always repeated.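 Growth conditions: 96-well plates. Treatment: test compound, 48 hours, 5 concentrations. Analysis: linear interpolation between bracketing concentrations; unreached endpoints set to highest concentration. GI50 is the concentration that inhibits growth by half.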 Calls of active or inactive are those of the source. Rule as the data show it: active = GI50 up to about 1.1 µM and inactive = higher.

Legend:
Test in all cases: inhibition of tumour cell growth, NCI panel, 48 h
786-0 = tested on: 786-0
A498 = tested on: A498
A549 = tested on: A549
ACHN = tested on: ACHN
CAKI-1 = tested on: CAKI-1
CCRF-CEM = tested on: CCRF-CEM
COLO 205 = tested on: COLO 205
DU-145 = tested on: DU-145
EKVX = tested on: EKVX
HCC 2998 = tested on: HCC 2998
HCT-116 = tested on: HCT-116
HCT-15 = tested on: HCT-15
HL-60 = tested on: HL-60
HOP-62 = tested on: HOP-62
HOP-92 = tested on: HOP-92
HT-29 = tested on: HT-29
IGROV-1 = tested on: IGROV-1
K562 = tested on: K562
KM12 = tested on: KM12
LOX IMVI = tested on: LOX IMVI
M14 = tested on: M14
MCF7 = tested on: MCF7
MDA-MB-231 = tested on: MDA-MB-231
MDA-MB-435 = tested on: MDA-MB-435
MDA-N = tested on: MDA-N
MOLT-4 = tested on: MOLT-4
Malme-3M = tested on: Malme-3M
NCI-H226 = tested on: NCI-H226
NCI-H23 = tested on: NCI-H23
NCI-H460 = tested on: NCI-H460
NCI-H522 = tested on: NCI-H522
NCI/ADR-RES = tested on: NCI/ADR-RES
OVCAR-3 = tested on: OVCAR-3
OVCAR-4 = tested on: OVCAR-4
OVCAR-5 = tested on: OVCAR-5
OVCAR-8 = tested on: OVCAR-8
PC-3 = tested on: PC-3
RXF 393 = tested on: RXF 393
SF-268 = tested on: SF-268
SF-295 = tested on: SF-295
SF-539 = tested on: SF-539
SK-MEL-28 = tested on: SK-MEL-28
SK-MEL-2 = tested on: SK-MEL-2
SK-OV-3 = tested on: SK-OV-3
SN12C = tested on: SN12C
SNB-19 = tested on: SNB-19
SNB-75 = tested on: SNB-75
SR = tested on: SR
SW-620 = tested on: SW-620
T47D = tested on: T47D
TK-10 = tested on: TK-10
U-251 = tested on: U-251
UACC-257 = tested on: UACC-257
UACC-62 = tested on: UACC-62
UO-31 = tested on: UO-31
BT-549 = tested on: BT-549
RPMI-8226 = tested on: RPMI-8226
SK-MEL-5 = tested on: SK-MEL-5

Measured: GI50

[O-][S+](CCCl)c1c2ccccc2nc2ccccc12 (stereo not drawn)
inactive: 786-0 50.2 µM | A498 > 100 µM | A549 > 100 µM | ACHN > 100 µM | CAKI-1 14.8 µM | CCRF-CEM 21.3 µM | COLO 205 36.9 µM | DU-145 22.9 µM | EKVX > 100 µM | HCC 2998 > 100 µM | HCT-116 42.1 µM | HL-60 29.4 µM | HOP-62 > 100 µM | HOP-92 > 100 µM | HT-29 53.6 µM | IGROV-1 38.6 µM | K562 > 100 µM | KM12 65.3 µM | LOX IMVI 79.4 µM | M14 75 µM | MCF7 28.2 µM | MDA-MB-231 70.6 µM | MDA-MB-435 84.9 µM | MDA-N 34.5 µM | MOLT-4 37.2 µM | Malme-3M > 100 µM | NCI-H226 > 100 µM | NCI-H23 75 µM | NCI-H460 > 100 µM | NCI-H522 8.45 µM | NCI/ADR-RES > 100 µM | OVCAR-3 > 100 µM | OVCAR-4 > 100 µM | OVCAR-5 > 100 µM | OVCAR-8 85.1 µM | PC-3 > 100 µM | RXF 393 > 100 µM | SF-268 > 100 µM | SF-295 > 100 µM | SF-539 31.9 µM | SK-MEL-28 > 100 µM | SK-MEL-2 > 100 µM | SK-OV-3 > 100 µM | SN12C 23.3 µM | SNB-19 > 100 µM | SNB-75 > 100 µM | SR > 100 µM | SW-620 11.3 µM | T47D > 100 µM | TK-10 > 100 µM | U-251 > 100 µM | UACC-257 > 100 µM | UACC-62 > 100 µM | UO-31 > 100 µM
> 100 µM: HCT-15

O=P(O)(O)OC1C(OP(=O)(O)O)C(OP(=O)(O)O)C(OP(=O)(O)O)C(OP(=O)(O)O)C1OP(=O)(O)O (stereo not drawn) [PHYTATE]
inactive: EKVX > 500 µM

COC(=O)C(Cc1ccccc1)NC(=O)C(CNC(=O)OCc1ccccc1)C(=O)OCc1ccccc1 (stereo not drawn)
inactive: A498 > 100 µM | BT-549 > 100 µM | CAKI-1 48.6 µM and 64 µM | COLO 205 51.1 µM | DU-145 > 100 µM | HCC 2998 > 100 µM | HCT-116 70.3 µM and 71 µM | HT-29 > 100 µM | IGROV-1 98.4 µM and 60.3 µM | K562 > 100 µM | KM12 > 100 µM | MCF7 30.2 µM and 48.2 µM | MDA-MB-231 38.7 µM and 23 µM | MDA-N > 100 µM | NCI-H226 54.8 µM and 57.5 µM | NCI-H23 > 100 µM | NCI-H522 29.4 µM and 32.2 µM | NCI/ADR-RES > 100 µM | OVCAR-3 36.6 µM and 32.3 µM | OVCAR-5 > 100 µM | OVCAR-8 > 100 µM | PC-3 58.3 µM | RPMI-8226 > 100 µM | RXF 393 13.2 µM | SK-MEL-2 > 100 µM and 86.5 µM | SK-OV-3 59.7 µM | SN12C > 100 µM | SNB-19 > 100 µM | SNB-75 42.6 µM and 21.8 µM | SR > 100 µM and 56.1 µM | T47D 79.6 µM and 47.8 µM | U-251 31.3 µM and 46.7 µM | UO-31 > 100 µM and 95.5 µM
> 100 µM: HCT-15

O=C1N/C(=N/N=C\C(O)C(O)C(O)C(O)CO)N/C1=C/c1ccccc1 (stereo not drawn)
inactive: NCI/ADR-RES > 100 µM and 67 µM | UACC-62 > 100 µM

Oc1ccc(-c2c3c(nc4c2CCc2ccc(Br)cc2-4)-c2cc(Br)ccc2CC3)cc1
18.9 µM: HCT-15
inactive: 786-0 18.9 µM | A498 23.4 µM | A549 19.8 µM | ACHN 20.7 µM | BT-549 24 µM | CAKI-1 17.7 µM | COLO 205 17.2 µM | DU-145 25.1 µM | EKVX 22 µM | HCC 2998 20.7 µM | HCT-116 24.4 µM | HOP-62 17.2 µM | HOP-92 16 µM | IGROV-1 17 µM | KM12 19.7 µM | M14 23.9 µM | MCF7 16.8 µM | MDA-MB-231 17.7 µM | MDA-MB-435 20 µM | MDA-N 18.6 µM | Malme-3M 25.8 µM | NCI-H226 23.3 µM | NCI-H23 20.3 µM | NCI-H460 22.5 µM | NCI-H522 25.6 µM | NCI/ADR-RES 23 µM | OVCAR-3 15.1 µM | OVCAR-4 22.3 µM | OVCAR-5 18 µM | PC-3 17.9 µM | RPMI-8226 26.9 µM | SF-268 21.7 µM | SF-295 16.2 µM | SK-MEL-28 20.6 µM | SK-MEL-2 16.8 µM | SK-MEL-5 20.7 µM | SK-OV-3 16.5 µM | SN12C 20 µM | SNB-19 23.6 µM | SNB-75 23.9 µM | T47D 21.2 µM | TK-10 21.1 µM | U-251 17.5 µM | UACC-257 27 µM | UACC-62 21.3 µM | UO-31 18.7 µM

CC(C)=CC(O)C(C(O)CCC1(C)OCCO1)S(=O)(=O)c1ccccc1 (stereo not drawn)
> 100 µM: HCT-15
inactive: 786-0 > 100 µM | A498 > 100 µM | A549 > 100 µM | ACHN > 100 µM | BT-549 > 100 µM | CAKI-1 > 100 µM | CCRF-CEM > 100 µM | COLO 205 > 100 µM | EKVX > 100 µM | HCC 2998 > 100 µM | HCT-116 > 100 µM | HOP-62 > 100 µM | IGROV-1 > 100 µM | KM12 > 100 µM | LOX IMVI > 100 µM | M14 > 100 µM | MCF7 > 100 µM | MDA-MB-231 > 100 µM | MDA-MB-435 > 100 µM | MDA-N > 100 µM | Malme-3M > 100 µM | NCI-H226 > 100 µM | NCI-H23 > 100 µM | NCI-H460 > 100 µM | NCI-H522 > 100 µM | NCI/ADR-RES > 100 µM | OVCAR-3 > 100 µM | OVCAR-4 > 100 µM | OVCAR-5 > 100 µM | OVCAR-8 > 100 µM | PC-3 > 100 µM | RPMI-8226 > 100 µM | RXF 393 > 100 µM | SF-268 > 100 µM | SF-295 > 100 µM | SF-539 > 100 µM | SK-MEL-28 > 100 µM | SK-MEL-2 > 100 µM | SK-OV-3 > 100 µM | SN12C > 100 µM | SNB-19 > 100 µM | SNB-75 > 100 µM | SW-620 > 100 µM | T47D > 100 µM | TK-10 > 100 µM | U-251 > 100 µM | UACC-257 > 100 µM | UO-31 > 100 µM
